In brackets after ≈: the same amount, converted by molar mass. Several values for one entry are separate records, joined by “and”; a condition that tells them apart may be missing. Identical values can stand only once. Like-named read-outs stand apart in the source and are kept apart here. Values belong to the compound of their own block, whether it stands above or below them. Square brackets hold non-standard residues; d marks the D form. Peptide text beside a SMILES is read from it. Nspe = C[C@H](NCC(=O)O)c1ccccc1; Nphe = O=C(O)CNCc1ccccc1; Nlys = NCCCCNCC(=O)O
Tests used:
Format in all cases: cell-based
B. subtilis (ATCC 6633) = tested on: B. subtilis (ATCC 6633)
Summary of the method: (§1)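 MICs by broth microdilution per CLSI M7-A6 in cation-adjusted Mueller-Hinton broth, using 2:1 serial dilutions of peptoid and a bacterial inoculum of 1×10^6 CFU/mL. Values reproducible over three experiments, each with two parallel trials.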

[1] = tested on: Enterobacter aerogenes ATCC 35029
Procedure: (§2) Antibacterial assays. MICs were determined according to CLSI M7-A6 protocols in a 96-well microtiter plate. In test wells, 50 μL bacterial inoculum (5×10^5 CFU/ml) in Mueller-Hinton broth (MHB) was added to 50 μL peptoid solution in MHB (prepared by 1:2 serial dilutions). Positive controls contained 50 μL inoculum and 50 μL MHB without peptoid. […] MIC values reported were reproducible between three independent experimental replicates, each consisting of two parallel trials. Broad-spectrum antimicrobial susceptibility testing was performed against BSL2 pathogens by Nova Biologicals, Inc. (Conroe, Tex.).
(§3) Broad-spectrum antibacterial assays. MICs of compounds were determined by microdilution procedure in Mueller-Hinton broth (MHB) in accordance with CLSI M7-A6 protocols in a manner similar to that described for the screen antibacterial assays. Inoculated microtiter plates were incubated at 35° C. for 24 hours prior to the result being recorded. Four ATCC strains that were used as standards are recommended by CLSI: Pseudomonas aeruginosa ATCC 27853, Escherichia coli ATCC 25922, Staphylococcus aureus ATCC 29213 and Enterococcus faecalis ATCC 29212. Other strains from the ATCC collection include Proteus vulgaris ATCC 49132, Proteus mirabilis ATCC 35659, Klebsiella pneumoniae ATCC 33495, Enterobacter aerogenes ATCC 35029 and Serratia marcescens ATCC 13880. S. aureus NRS100 (COL) is a well characterized methicillian-resistant S. aureus (MRSA) strain. The strains S. aureus VAN1 and S. aureus VAN2, vancomycin-resistant MRSA strains that were isolated in Michigan and Pennsylvania, were the first vancomycin-resistant strains clinically isolated. S. aureus NRS119 and S. aureus NRS120 are linezolid-resistant isolates from the Network on Antimicrobial Resistance in S. aureus (NARSA) collection. E. faecalis 99 and E. faecium 106 are vancomycin-resistant enterococcal strains.

Enterococcus faecalis 99 = tested on: Enterococcus faecalis 99
Procedure: as §2, §3

[2] = tested on: Enterococcus faecalis ATCC 29212
Procedure: as §2, §3

Enterococcus faecium 106 = tested on: Enterococcus faecium 106
Procedure: as §2, §3

[3] = tested on: Escherichia coli ATCC 25922
Procedure: as §2, §3

[4] = tested on: Klebsiella pneumoniae ATCC 33495
Procedure: as §2, §3

[5] = tested on: Proteus mirabilis ATCC 35659
Procedure: as §2, §3

[6] = tested on: Proteus vulgaris ATCC 49132
Procedure: as §2, §3

[7] = tested on: Pseudomonas aeruginosa ATCC 27853
Procedure: as §2, §3

[8] = tested on: Serratia marcescens ATCC 13880
Procedure: as §2, §3

[9] = tested on: Staphylococcus aureus ATCC 29213
Procedure: as §2, §3

[10] = tested on: Staphylococcus aureus NRS100 (COL)
Procedure: as §2, §3

[11] = tested on: Staphylococcus aureus NRS119
Procedure: as §2, §3

[12] = tested on: Staphylococcus aureus NRS120
Procedure: as §2, §3

[13] = tested on: Staphylococcus aureus VAN1
Procedure: as §2, §3

[14] = tested on: Staphylococcus aureus VAN2
Procedure: as §2, §3

E. coli (ATCC 35218) = tested on: E. coli (ATCC 35218)
Summary of the method: as §1

[15] = Table 7A, MRSA, vancomycin-resistant

- B. subtilis MIC (B. subtilis (ATCC 6633); ATCC 6633): 0.78 µM
- MIC Enterobacter aerogenes ATCC 35029 ([1]; ATCC 35029): 75.0 µM (≈ 128 µg/mL)
- MIC E. aerogenes ATCC 35029 ([1]; Table 7A): 128 µg/mL (≈ 75 µM)
- MIC Enterococcus faecalis 99 (Enterococcus faecalis 99; 99): 37.5 µM (≈ 64 µg/mL)
- MIC E. faecalis 99 (Enterococcus faecalis 99; Table 7A): 64 µg/mL (≈ 37.5 µM)
- MIC Enterococcus faecalis ATCC 29212 ([2]; ATCC 29212): 9.4 µM (≈ 16 µg/mL)
- MIC E. faecalis ATCC 29212 ([2]; Table 7A): 16 µg/mL (≈ 9.37 µM)
- MIC Enterococcus faecium 106 (Enterococcus faecium 106; 106): 2.3 µM (≈ 3.93 µg/mL)
- MIC E. faecium 106 (Enterococcus faecium 106; Table 7A): 4 µg/mL (≈ 2.34 µM)
- MIC Escherichia coli ATCC 25922 ([3]; ATCC 25922): 9.4 µM (≈ 16 µg/mL)
- MIC E. coli ATCC 25922 ([3]; Table 7A): 16 µg/mL (≈ 9.37 µM)
- MIC Klebsiella pneumoniae ATCC 33495 ([4]; ATCC 33495): 4.7 µM (≈ 8.02 µg/mL)
- MIC K. pneumoniae ATCC 33495 ([4]; Table 7A): 8 µg/mL (≈ 4.69 µM)
- MIC P. mirabilis ATCC 35659 ([5]; ATCC 35659): >128 µg/mL
- MIC Proteus mirabilis ATCC 35659 ([5]; ATCC 35659): >75 µM
- MIC Proteus vulgaris ATCC 49132 ([6]; ATCC 49132): 18.7 µM (≈ 31.9 µg/mL)
- MIC P. vulgaris ATCC 49132 ([6]; Table 7A): 32 µg/mL (≈ 18.7 µM)
- MIC Pseudomonas aeruginosa ATCC 27853 ([7]; ATCC 27853): 9.4 µM (≈ 16 µg/mL)
- MIC P. aeruginosa ATCC 27853 ([7]; Table 7A): 16 µg/mL (≈ 9.37 µM)
- MIC S. marcescens ATCC 13880 ([8]; ATCC 13880): >128 µg/mL
- MIC Serratia marcescens ATCC 13880 ([8]; ATCC 13880): >75 µM
- MIC Staphylococcus aureus ATCC 29213 ([9]; ATCC 29213): 4.7 µM (≈ 8.02 µg/mL)
- MIC S. aureus ATCC 29213 ([9]; Table 7A): 8 µg/mL (≈ 4.69 µM)
- MIC Staphylococcus aureus NRS100 (COL) ([10]; NRS100 (COL)): 4.7 µM (≈ 8.02 µg/mL)
- MIC S. aureus NRS100 (COL) ([10]; Table 7A, MRSA): 8 µg/mL (≈ 4.69 µM)
- MIC Staphylococcus aureus NRS119 ([11]; NRS119): 9.4 µM (≈ 16 µg/mL)
- MIC S. aureus NRS119 ([11]; Table 7A, linezolid-resistant): 16 µg/mL (≈ 9.37 µM)
- MIC Staphylococcus aureus NRS120 ([12]; NRS120): 9.4 µM (≈ 16 µg/mL)
- MIC S. aureus NRS120 ([12]; Table 7A, linezolid-resistant): 16 µg/mL (≈ 9.37 µM)
- MIC S. aureus VAN1 [13, 15]: 8 µg/mL (≈ 4.69 µM)
- MIC Staphylococcus aureus VAN1 ([13]; VAN1): 4.7 µM (≈ 8.02 µg/mL)
- MIC S. aureus VAN2 [14, 15]: 8 µg/mL (≈ 4.69 µM)
- MIC Staphylococcus aureus VAN2 ([14]; VAN2): 4.7 µM (≈ 8.02 µg/mL)
Structure (SMILES): NCCCCNCC(=O)N(CC(=O)N(CC(=O)N(CCCCN)CC(=O)N(CC(=O)N(CC(=O)N(CCCCN)CC(=O)N(CC(=O)N(CC(=O)N(CCCCN)CC(=O)N(CC(=O)N(CC(N)=O)Cc1ccccc1)Cc1ccccc1)Cc1ccccc1)Cc1ccccc1)Cc1ccccc1)Cc1ccccc1)Cc1ccccc1)Cc1ccccc1 [1achiral, H-(Nlys-Npm-Npm)4-NH2] (H-[Nlys][Nphe][Nphe][Nlys][Nphe][Nphe][Nlys][Nphe][Nphe][Nlys][Nphe][Nphe]-NH2)

Structure (SMILES): C[C@@H](c1ccccc1)N(CC(N)=O)C(=O)CN(C(=O)CN(CCCCN)C(=O)CN(C(=O)CN(C(=O)CN(CCCCN)C(=O)CN(C(=O)CN(C(=O)CN(CCCCN)C(=O)CN(C(=O)CN(C(=O)CNCCCCN)[C@@H](C)c1ccccc1)[C@@H](C)c1ccccc1)[C@@H](C)c1ccccc1)[C@@H](C)c1ccccc1)[C@@H](C)c1ccccc1)[C@@H](C)c1ccccc1)[C@@H](C)c1ccccc1 [compound 1, H-(NLys-Nspe-Nspe)4-NH2] (H-[Nlys][Nspe][Nspe][Nlys][Nspe][Nspe][Nlys][Nspe][Nspe][Nlys][Nspe][Nspe]-NH2)
- B. subtilis MIC (B. subtilis (ATCC 6633); Table 3, ATCC 6633, cation-adjusted MHB): 1.6 µM
- B. subtilis MIC (B. subtilis (ATCC 6633); Table 6, ATCC 6633): 1.6 µM
- E. coli MIC (E. coli (ATCC 35218); Table 3, ATCC 35218, cation-adjusted MHB): 6.3 µM
- E. coli MIC (E. coli (ATCC 35218); Table 6, ATCC 35218): 6.25 µM and 6.3 µM
- MIC Enterobacter aerogenes ATCC 35029 ([1]; Table 4, Gram −): 8.8 µM (≈ 16 µg/mL)
- MIC Enterococcus faecalis 99 (Enterococcus faecalis 99; Table 4, vancomycin resistant): 4.4 µM (≈ 8.01 µg/mL)
- MIC Enterococcus faecalis ATCC 29212 ([2]; Table 4, Gram +): 2.2 µM
- MIC Enterococcus faecium 106 (Enterococcus faecium 106; Table 4, vancomycin resistant): 2.2 µM (≈ 4 µg/mL)
- MIC Escherichia coli ATCC 25922 ([3]; Table 4, Gram −): 2.2 µM (≈ 4 µg/mL)
- MIC Klebsiella pneumoniae ATCC 33495 ([4]; Table 4, Gram −): 8.8 µM (≈ 16 µg/mL)
- MIC Proteus mirabilis ATCC 35659 ([5]; Table 4, Gram −): >70.4 µM
- MIC P. mirabilis ATCC 35659 ([5]; Table 7A): >128 µg/mL
- MIC Proteus vulgaris ATCC 49132 ([6]; Table 4, Gram −): 17.6 µM (≈ 32 µg/mL)
- MIC Pseudomonas aeruginosa ATCC 27853 ([7]; Table 4, Gram −): 4.4 µM (≈ 8.01 µg/mL)
- MIC Serratia marcescens ATCC 13880 ([8]; Table 4, Gram −): 70.4 µM (≈ 128 µg/mL)
- MIC Staphylococcus aureus ATCC 29213 ([9]; Table 4, Gram +): 2.2 µM
- MIC Staphylococcus aureus NRS100 (COL) ([10]; Table 4, Gram +): 2.2 µM
- MIC Staphylococcus aureus NRS119 ([11]; Table 4, Gram +): 2.2 µM
- MIC Staphylococcus aureus NRS120 ([12]; Table 4, Gram +): 4.4 µM
- MIC Staphylococcus aureus VAN1 ([13]; Table 4, vancomycin resistant): 2.2 µM (≈ 4 µg/mL)
- MIC Staphylococcus aureus VAN2 ([14]; Table 4, vancomycin resistant): 2.2 µM (≈ 4 µg/mL)
